Results published in patent publication US8461176B2, “Enantiomerically enriched aryloazol-2-yl cyanoethylamino compounds, method of making and method of using thereof” (Merial Limited, priority 2008, dated 2013).
In brackets after ≈: the same amount, converted by molar mass. Values belong to the compound of their own block, whether it stands above or below them.

Key:
[1] = test system: Haemonchus contortus; assay: Method B: activity against Haemonchus contortus in vivo in Mongolian gerbil; set-up: species or system Mongolian gerbil (Meriones unguiculatus); details: po, 72 h, oral gavage, read-out: reduction in nematode infection
Method: Method B: Screening Method to Test Activity of Compounds Against Haemonchus contortus In Vivo in Mongolian Gerbil (Meriones unguiculatus).
Mongolian gerbils, at least five weeks old, were immunosuppressed and artificially infected with ca. 1000 ensheathed Haemonchus contortus third instar larvae. Six days after infection, the Mongolian gerbils were treated by oral gavage with the test compounds, dissolved in a mixture of 2 parts DMSO and 1 part polyethylene glycol (PEG400), at doses of 100 mg/kg and dissolved in pure polyethylene glycol (PEG400) at doses of 10 and 1 mg/kg. Mongolian gerbils treated only with the placebo (2 parts DMSO and 1 part PEG400 or pure PEG400) served as controls. On day 9 (3 days after treatment) the jirds were euthanized and necropsied for recovery of parasites from the stomach. Efficacy was calculated as the average % reduction in the number of worms in each test group compared with the average number of worms from the control group. […] Compound numbers 1.001, 1.008, 1.012, 1.013 and 1.014 provided at least 95% reduction in nematode in Mongolian gerbils treated by oral gavage with test article at a dose of 100 mg/kg. Compound numbers 1.012, 1.033, 1.064, 2.008, 2.037, 2.038, 2.040, 2.041, 3.001 provided at least 95% reduction in nematode infection at a dose of 10 mg/kg. Compound numbers 1.094, 1.096, 2.048, 3.001, 3.007 and 3.009, provided at least 95% reduction in nematode infection at a dose of 1 mg/kg. Compound numbers 3.006, 3.017 and 3.019 provided at least 95% reduction in nematode infection at a dose of 0.5 mg/kg. Compound numbers 3.005, 3.011 and 3.012 provided at least 95% reduction in nematode infection at a dose of 0.3 mg/kg. The eutomer compound number 3.024 provided at least 95% reduction in nematode infection at a dose of 0.1 mg/kg.

[2] = Feed solubility in ethanol (preparative chiral separation); type: physicochemical; details: organic solvent or mixture, with stirring and heating
Method: The feed solution was filtered through a 0.2 μm filter before use. The enantiomers were separated using a CHIRALPAK®AD® column (CHIRAL Technologies Inc., 20 μm particle size of amylose tris(3,5-dimethylphenylcarbamate) polysaccharide CHIRALPAK®AD® stationary phase, 5 cm internal diameter, 50 cm length at 25° C. and flow rate of 110 mL/min) with injection volume of 65 mL every 11 min. The fractions collected from the chromatographic process for each of the two chromatographic eluting peaks were concentrated using a a 20 L rotary evaporator at 40° C. and 50 mbar. After solvent removal, the products were dried to constant weight in a vacuum oven at 40° C. The target eutomer (+)-N-[2-(6-Bromo-2H-pyrazolo[4,3-b]pyridin-2-yl)-1-cyano-1-methylethyl]-4-trifluoromethoxybenzamide was isolated from the first eluting peak with a recovery yield of 89.0% (19.3 g). […] The distomer (−)-N-[2-(6-Bromo-2H-pyrazolo[4,3-b]pyridin-2-yl)-1-cyano-1-methylethyl]-4-trifluoromethoxybenzamide was isolated from the second eluting peak with a recovery yield of 94.5% (20.5 g). The percent enantiomeric excess of the distomer is 98.8% as measured via analytical chiral HPLC using a CHIRALPAK®AD® column (CHIRAL Technologies Inc., 4.6×250 mm, at 30° C., flow rate of 0.7 mL/min of EtOH mobile phase, retention time=12.5 min).

[3] = test system: Haemonchus placei; assay: Method H: cattle in vivo, Haemonchus placei; details: ivermectin alone, 0.2 mg/kg (200 μg/kg) subcutaneously
Excerpt: (§1) Method H: Screening Method to Test Activity of Compounds Against Haemonchus placei, Ostertagia ostertagi, Trichostrongylus axei, Cooperia punctata, Bunostomum phlebotomum, Oesophagostomum radiatum, Dictyocaulus viviparus, and Nematodirus helvetianus In Vivo in Cattle.
(§2) Calves were challenged intra-aurally with larvae from Bunostomum phlebotomum (500-1000 L3 per animal) on Dat −56; and orally with larvae from Oesophagostomum radiatum (1,000-2,000 infective L3 per animal) on Dat −49, Nematodirus helvetianus (3,000-6,000 infective L3 per animal) on Dat −28, Haemonchus placei (5,000-7,000 infective L3 per animal) on Dat −28, Dictyocaulus viviparus (1,000-2,000 infective L3 per animal) on Dat −28, Ostertagia ostertagi (10,000-20,000 infective L3 per animal) on Dat −21, Trichostrongylus axei (10,000-20,000 infective L3 per animal) on Dat −21, Cooperia punctata (10,000-20,000 infective L3 per animal) on Dat −28, and Cooperia oncophora (10,000-20,000 infective L3 per animal) on Dat −21. The test compound was administered alone at a dose of 3 or 6 mg/kg orally or subcutaneously or subcutaneously at a dose of 6 mg/kg in combination with ivermectin at a dose of 50 mcg/kg. For oral administration, test compounds were formulated at a concentration of 10 mg/mL in DMSO/Corn oil (1:1). For subcutaneous administration, test compounds were formulated in propylene glycol/glycerol formal (60:40). All treatments were administered at Day 0. At necropsy on Day 14/15, the abomasa, small intestine and large intestine were removed and processed for parasite recovery. Nematode counts were conducted on appropriate aliquots. Efficacy was calculated for each nematode species by calculating the percent efficacy as 100[(C−T)/C], where C is the mean count among untreated controls and T is the count of the treated animals. Compound number 3.024 provided >95% efficacy against Haemonchus placei, Ostertagia ostertagi, Trichostrongylus axei, Cooperia punctata, Oesophagostomum radiatum and Nematodirus helvetianus at a dose as low as 3 mg/kg administered orally. […]

[4] = test system: Nematodirus helvetianus; assay: Method H: cattle in vivo, Nematodirus helvetianus; details: ivermectin alone, 0.2 mg/kg (200 μg/kg) subcutaneously
Excerpt: as §1, §2

[5] = test system: ivermectin-resistant Haemonchus contortus; assay: Method I: sheep in vivo, ivermectin-resistant Haemonchus contortus; details: ivermectin orally at 0.2 mg/kg
Excerpt: (§3) Method I: Screening Method to Test Activity of Compounds Against Ivermectin-Resistant Haemonchus contortus, Ostertagia circumcincta, and Trichostrongylus colubriformis In Vivo in Sheep.
(§4) Sheep were challenged orally with infective 3rd stage larvae (L3) of Ostertagia circumcincta (˜3,000-6,000 infective L3 per animal) on Dat −28, Haemonchus contortus (˜2,000-4,000 infective L3 per animal) on Dat −25, and Trichostrongylus colubriformis (˜3,000-6,000 infective L3 per species per animal) on Dat −23. The inoculation schedule was designed so that nematodes were expected to be in the adult stage on Day 0. Test compounds were dissolved in a mixture of DMSO/Corn oil (1:1) at a concentration of 10 mg/mL. All treatments were administered orally once on Day 0. At sacrifice on Day 14 the abomasum, small intestine and large intestine (including cecum) were removed. Nematode counts were conducted on 10% (abomasal and small intestinal content, abomasal soak) or 20% aliquots (large intestinal content). All nematodes were speciated, or assigned to species based on location of recovery (adult females, fourth-stage larvae) for a total count per species. Efficacy was calculated as the % reduction in the mean number of worms in each test group compared with the mean number of worms recovered from the control group. […]

[6] = test system: ivermectin-resistant Ostertagia circumcincta; assay: Method I: sheep in vivo, ivermectin-resistant Ostertagia circumcincta; details: ivermectin orally at 0.2 mg/kg
Excerpt: as §3, §4

[7] = test system: ivermectin-resistant Trichostrongylus columbriformis; assay: Method I: sheep in vivo, ivermectin-resistant Trichostrongylus colubriformis; details: ivermectin orally at 0.2 mg/kg
Excerpt: as §3, §4

[8] = test system: Haemonchus contortus; assay: Method A: screening of activity against Haemonchus contortus L1 larvae in microtitre plate (development to L3 / motility); details: Haemonchus contortus, 96 h, 4 days assessment; for inhibition at 0.0025 ppm: test concentration 0.0025 ppm; for inhibition at 0.6 ppm: test concentration 0.6 ppm; for inhibition at 0.15 ppm: test concentration 0.15 ppm
Excerpt: Method A: Screening Method to Test Activity of Compounds Against Haemonchus contortus.

solubility [2]: 8600 µg/mL (≈ 18.4 mM)
Compound: CC(C#N)(Cn1cc2ncc(Br)cc2n1)NC(=O)c1ccc(OC(F)(F)F)cc1 (stereo not drawn) [Compound 3.011, N-[2-(6-Bromo-2H-pyrazolo[4,3-b]pyridin-2-yl)-1-cyano-1-methylethyl]-4-trifluoromethoxybenzamide]
inhibition in vivo at 0.3 mg/kg [1]: ≥ 95%

Compound: ivermectin [reference compound]
efficacy against Haemonchus placei (ivermectin-resistant strain) [3]: less than 70%
efficacy against Nematodirus helvetianus [4]: less than 30%
activity against ivermectin-resistant Haemonchus contortus [5]: almost completely inactive
efficacy against ivermectin-resistant Ostertagia circumcincta [6]: less than 30%
efficacy against ivermectin-resistant Trichostrongylus columbriformis [7]: less than 60%

Compound: CC(C#N)(Cn1nc2c(Cl)cc(Cl)c(Cl)c2n1)NC(=O)c1ccc(OC(F)(F)F)cc1 (single isomer, unassigned; (+)) [Compound 1.096, (+)-N-[1-Cyano-1-methyl-2-(4,5,7-trichloro-2H-benzotriazol-2-yl)-ethyl]-4-trifluoromethoxybenzamide]
inhibition at 0.0025 ppm [8]: ≥ 90%
inhibition in vivo at 1 mg/kg ([1]; dose 1 mg/kg, necropsy 3 days after treatment): ≥ 95%

Compound: CC(C#N)(Cn1cc2ncccc2n1)NC(=O)c1ccc(OC(F)(F)F)cc1 (stereo not drawn) [Compound 3.045, N-[1-Cyano-1-methyl-2-(2H-pyrazolo[4,3-b]pyridin-2-yl)ethyl]-4-trifluoromethoxybenzamide]
inhibition at 0.6 ppm [8]: ≥ 90%

Compound: CC(C#N)(Cn1cc2ncc(Br)cc2n1)NC(=O)c1ccc(Cl)cc1 (stereo not drawn) [Compound 3.046, N-[2-(6-Bromo-2H-pyrazolo[4,3-b]pyridin-2-yl)-1-cyano-1-methylethyl]-4-chlorobenzamide]
inhibition at 0.15 ppm [8]: ≥ 90%

Compound: C[C@](C#N)(Cn1cc2ncc(Br)cc2n1)NC(=O)c1ccc(OC(F)(F)F)cc1 [Compound 3.025, (−)-N-[2-(6-Bromo-2H-pyrazolo[4,3-b]pyridin-2-yl)-1-cyano-1-methylethyl]-4-trifluoromethoxybenzamide]
inhibition at 0.3 ppm ([8]; test concentration 0.3 ppm): < 90%
inhibition in vivo at 0.3 mg/kg [1]: < 95%

Compound: CCCCCCc1ccc(C(=O)NC(C)(C#N)Cn2cc3ncc(Br)cc3n2)cc1 (stereo not drawn) [Compound 3.051, N-[2-(6-Bromo-2H-pyrazolo[4,3-b]pyridin-2-yl)-1-cyano-1-methylethyl]-4-hexylbenzamide]
inhibition at 0.6 ppm [8]: ≥ 90%

Compound: CCOc1c2cc(Cl)ccc2nn1CC(C)(C#N)NC(=O)c1ccc(OC(F)(F)F)cc1 (stereo not drawn) [Compound 2.014, N-[2-(5-Chloro-3-ethoxy-2H-indazol-2-yl)-1-cyano-1-methylethyl]-4-trifluoromethoxybenzamide]
inhibition at 0.15 ppm [8]: ≥ 90%

Compound: CC(C#N)(Cn1cc2nc(Br)c(Br)cc2n1)NC(=O)c1ccc(OC(F)(F)F)cc1 (stereo not drawn) [Compound 3.042, N-[1-Cyano-2-(5,6-dibromo-2H-pyrazolo[4,3-b]pyridin-2-yl)-1-methylethyl]-4-trifluoromethoxybenzamide]
inhibition at 0.6 ppm [8]: ≥ 90%

Compound: CC(C#N)(Cn1cc2ncc(Cl)cc2n1)NC(=O)c1ccc(OC(F)(F)F)cc1 (stereo not drawn) [Compound 3.005, N-[2-(6-Chloro-2H-pyrazolo[4,3-b]pyridin-2-yl)-1-cyano-1-methylethyl]-4-trifluoromethoxybenzamide]
inhibition in vivo at 0.3 mg/kg [1]: ≥ 95%

Compound: CC(C#N)(Cn1cc2ncc(I)cc2n1)NC(=O)c1ccc(OC(F)(F)F)cc1 (stereo not drawn) [Compound 3.026, N-[1-Cyano-2-(6-iodo-2H-pyrazolo[4,3-b]pyridin-2-yl)-1-methylethyl]-4-trifluoromethoxybenzamide]
inhibition at 0.0025 ppm [8]: ≥ 90%

Compound: CC(C#N)(Cn1cc2c(Cl)cc(Cl)c(Cl)c2n1)NC(=O)c1ccc(C(F)(F)F)cc1F (stereo not drawn) [Compound 2.187, N-[1-Cyano-1-methyl-2-(4,6,7-trichloro-2H-indazol-2-yl)ethyl]-2-fluoro-4-trifluoromethylbenzamide]
inhibition at 0.01 ppm ([8]; test concentration 0.01 ppm): ≥ 90%

Compound: CC(C#N)(Cn1nc2c(Cl)cc(Cl)c(Cl)c2n1)NC(=O)c1ccc(C(F)(F)F)cc1F (stereo not drawn) [Compound 1.143, N-[1-Cyano-1-methyl-2-(4,5,7-trichloro-2H-benzotriazol-2-yl)-ethyl]-2-fluoro-4-trifluoromethylbenzamide]
inhibition at 0.04 ppm ([8]; test concentration 0.04 ppm): ≥ 90%

Compound: CC(C#N)(Cn1cc2nc(Br)ccc2n1)NC(=O)c1ccc(OC(F)(F)F)cc1 (stereo not drawn) [Compound 3.044, N-[1-Cyano-2-(5-bromo-2H-pyrazolo[4,3-b]pyridin-2-yl)-1-methylethyl]-4-trifluoromethoxybenzamide]
inhibition at 0.6 ppm [8]: ≥ 90%
